Drawing on patent US9469608B2, “Thrombin inhibitors” (Merck Sharp & Dohme Corp., priority 2012, dated 2016), this text covers Ki for 13 compounds.

Structures are written as SMILES.

For one experiment, the target named is human α-thrombin (Homo sapiens (Human), UniProt P00734). Nature of the experiment: In vitro assay for determining proteinase inhibition (thrombin Ki). In kind it is biochemical.
Conditions: not given
The method, then:
NMR determinations were made using 400 MHz field strength. Ki data was obtained according to the procedure described in Lewis, et al. Thromb. […] Reactions sensitive to moisture or air were performed under nitrogen or argon using anhydrous solvents and reagents. […] Typically, the analytical LC-MS system used consisted of a Waters ZQ platform with electrospray ionization in positive ion detection mode with an Agilent 1100 series HPLC with autosampler. The column was usually a Water Xterra MS C18, 3.0×50 mm, 5 μm. The flow rate was 1 mL/min, and the injection volume was 10 μL. UV detection was in the range 210-400 nm. […] Preparative HPLC purifications were usually performed using a mass spectrometry directed system. […] The mobile phases consisted of mixtures of acetonitrile (10-100%) in water containing 0.1% TFA. Flow rates were maintained at 50 mL/min, the injection volume was 1800 μL, and the UV detection range was 210-400 nm. Mobile phase gradients were optimized for the individual compounds. Reactions performed using microwave irradiation were normally carried out using an Emrys Optimizer manufactured by Personal Chemistry, or an Initiator manufactured by Biotage. Concentration of solutions was carried out on a rotary evaporator under reduced pressure. Flash chromatography was usually performed using a Biotage Flash Chromatography apparatus (Dyax Corp.) on silica gel ([…], 60 Å pore size) in pre-packed cartridges of the size noted. ^1H NMR spectra were acquired at 500 MHz spectrometers in CDCl3 solutions unless otherwise noted. Chemical shifts were reported in parts per million (ppm). Tetramethylsilane (TMS) was used as internal reference in CD3Cl solutions, and residual CH3OH peak or TMS was used as internal reference in CD3OD solutions. Coupling constants (J) were reported in hertz (Hz). Chiral analytical chromatography was performed on one of Chiralpak AS, Chiralpak AD, Chiralcel OD, Chiralcel IA, or Chiralcel OJ columns (250×4.6 mm) (Daicel Chemical Industries, Ltd.) with noted percentage of either ethanol in hexane (% Et/Hex) or isopropanol in heptane (% IPA/Hep) as isocratic solvent systems. Chiral preparative chromatography was conducted on one of Chiralpak AS, Chiralpak AD, Chiralcel OD, Ciralcel IA, or Chiralcel OJ columns (20×250 mm) (Daicel Chemical Industries, Ltd.) with desired isocratic solvent systems identified on chiral analytical chromatography or by supercritical fluid (SFC) conditions. Celite® (Fluka) diatomite is diatomaceous earth, and can be referred to as “celite”.
Relevant in vitro assays are referenced in Morrissette, et al., Bioorg. […] The assays were carried out at 25° C. in 0.05 M TRIS buffer pH 7.4, 0.15 M NaCl, 0.1% PEG. Trypsin assays also contained 1 mM CaC12.
Concentrations of stock solutions of Z-GPR-afc were determined from measurements of absorbance at 380 nm of the 7-amino-4-trifluoromethyl coumarin produced upon complete hydrolysis of an aliquot of the stock solution by thrombin.
Activity assays were performed by diluting a stock solution of substrate at least tenfold to a final concentration ≦0.1 Km into a solution containing enzyme or enzyme equilibrated with inhibitor. Times required to achieve equilibration between enzyme and inhibitor were determined in control experiments. Initial velocities of product formation in the absence (Vo) or presence of inhibitor (Vi) were measured. Assuming competitive inhibition, and that unity is negligible compared Km/[S], [I]/e, and [I]/e (where [S], [I], and e respectively represent the total concentrations, of substrate, inhibitor and enzyme), the equilibrium constant (Ki) for dissociation of the inhibitor from the enzyme can be obtained from the dependence of Vo/Vi on [I] shown in the following equation.
The term Ki denotes a dissociation constant, usually derived from enzyme kinetics or from competition with a known ligand. Regarding `NCc1ccc(Cl)cc1CNC(=O)[C@@H]1CCN1C(=O)C1OCc2ccccc21` (stereo partly drawn) [Compound 33-7, (2S)-N-{2-(Aminomethyl)-5-chlorobenzyl}-1-(1,3-dihydroisobenzofuran-1-carbonyl)azetidine-2-carboxamide-2,2,2-trifluoroacetate], affinity was put at a Ki of 39 nM.

In turn, `NCc1ccc(Cl)cc1CNC(=O)[C@@H]1CCCN1C(=O)[C@H]1CCCO1` [Compound 38-4, (S)—N-{2-(Aminomethyl)-5-chlorobenzyl}-1-{(R)-tetrahydrofuran-2-carbonyl}pyrrolidine-2-carboxamide-2,2,2-trifluoroacetate] returned a Ki of 100 nM.

Still in this experiment, the particulars now being: 25° C., 0.05 M TRIS buffer pH 7.4, 0.15 M NaCl, 0.1% PEG; competitive inhibition assumed.
On to `NCc1ccc(Cl)cc1CNC(=O)[C@@H]1CCCN1C(=O)C1(O)CCc2ccncc21` (stereo partly drawn) [Compound 28-6, (2S)-N-{2-(aminomethyl)-5-chlorobenzyl}-1-(7-hydroxy-6,7-dihydro-5H-cyclopenta[c]pyridine-7-carbonyl)pyrrolidine-2-carboxamide bis (2,2,2-trifluoroacetate)], for which affinity was put at a Ki of 16 nM. `NCc1ccc(Cl)cc1CNC(=O)[C@@H]1CCCN1C(=O)C1(O)CCCc2ncccc21` (stereo partly drawn) [Compound 30-6, (2S)-N-{2-(Aminomethyl)-5-chlorobenzyl}-1-(5-hydroxy-5,6,7,8-tetrahydroquinoline-5-carbonyl)pyrrolidine-2-carboxamide bis(2,2,2-trifluoroacetate)] returned an inhibition constant (Ki) of 11 nM. The same measure, in the same setting: the result for `NCc1ccc(Cl)cc1CNC(=O)[C@@H]1CCCN1C(=O)C1(O)CCCc2cnccc21` (stereo partly drawn) [Compound 31-7, (2S)-N-{2-(Aminomethyl)-5-chlorobenzyl}-1-(5-hydroxy-5,6,7,8-tetrahydroisoquinoline-5-carbonyl)pyrrolidine-2-carboxamide bis(2,2,2-trifluoroacetate)] reads 4.8 nM; that for `NCc1ccc(Cl)cc1CNC(=O)[C@@H]1CCCN1C(=O)C1(O)CCCc2cccnc21` (stereo partly drawn) [Compound 32-7, (2S)-N-{2-(aminomethyl)-5-chlorobenzyl}-1-(8-hydroxy-5,6,7,8-tetrahydroquinoline-8-carbonyl)pyrrolidine-2-carboxamide bis(2,2,2-trifluoroacetate)], 3.9 nM; that for `NCc1ccc(Cl)cc1CNC(=O)[C@@H]1CCN1C(=O)C1NCc2ccccc21` (stereo partly drawn) [Compound 34-7, (2S)-N-{2-(aminomethyl)-5-chlorobenzyl}-1-(isoindoline-1-carbonyl)azetidine-2-carboxamide bis(2,2,2-trifluoroacetate)], 2.5 nM. The same measure, in the same setting: the result for `NCc1ccc(Cl)cc1CNC(=O)[C@@H]1CCN1C(=O)C1CNc2ccccc21` (stereo partly drawn) [Compound 35-7, (2S)-N-{2-(Aminomethyl)-5-chlorobenzyl}-1-(indoline-3-carbonyl)azetidine-2-carboxamide bis(2,2,2-trifluoroacetate)] reads 110 nM.

Regarding `O=C(NCc1cc(Cl)ccc1-n1cnnn1)[C@@H]1CCCN1C(=O)C1(O)CCc2cccnc21` (stereo partly drawn) [Compound 36-3, (2S)-N-{5-Chloro-2-(1H-tetrazol-1-yl)benzyl}-1-(7-hydroxy-6,7-dihydro-5H-cyclopenta[b]pyridine-7-carbonyl)pyrrolidine-2-carboxamide], the inhibitory constant (Ki) is 2.5 nM.

On to `NCc1ccc(Cl)cc1CNC(=O)[C@@H]1CCCN1C(=O)c1ncccn1` [Compound 42-3, (S)—N-(2-(Aminomethyl)-5-chlorobenzyl)-1-(pyrimidine-2-carbonyl)pyrrolidine-2-carboxamide bis(2,2,2-trifluoroacetate)], for which the Ki came out at 260 nM. On the same count and under the same terms, the result for `C[C@@]1(C(=O)NCc2cc(Cl)ccc2CN)CCCN1C(=O)[C@H]1CCC(=O)N1` [Compound 43, (S)-N-(2-(aminomethyl)-5-chlorobenzyl)-2-methyl-1-((R)-5-oxopyrrolidine-2-carbonyl)pyrrolidine-2-carboxamide] reads 526 nM; that for `C[C@@]1(C(=O)NCc2cc(Cl)ccc2CN)CCCN1C(=O)c1ccc(Cl)[nH]1` [Compound 44, (S)-N-(2-(aminomethyl)-5-chlorobenzyl)-1-(5-chloro-1H-pyrrole-2-carbonyl)-2-methylpyrrolidine-2-carboxamide], 104 nM; that for `Cc1ccc(C(=O)N2CCC[C@@]2(C)C(=O)NCc2cc(Cl)ccc2CN)[nH]1` [Compound 45, (S)-N-(2-(aminomethyl)-5-chlorobenzyl)-2-methyl-1-(5-methyl-1H-pyrrole-2-carbonyl)pyrrolidine-2-carboxamide], 93 nM.
